Data as given in patent US12319655B2, “RAF kinase inhibitors and methods of use thereof” (Deciphera Pharmaceuticals, LLC, priority 2021, dated 2025).

What was measured:
[1] = target: A-Raf kinase (SEQ. ID No: 1) (Homo sapiens (Human), UniProt P10398, Y301D/Y302D); test: Biochemical Assay for A-Raf (1); conditions: Table J, assay version (1); read-out: ARAF (1) IC50
How it was run: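 IC50 values were derived by four-parameter sigmoidal fitting of percent inhibition, calculated from reaction rates over the 4–5 h window. Absorbance at 340 nm was tracked for 6 h at 30 °C via coupled PK/LDH NADH depletion. Conditions: 1 mM ATP, 30.1 nM MEK substrate, 5.55 nM A-Raf (Y301D/Y302D), Tris pH 7.5, 1% DMSO.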

[2] = target: B-Raf kinase (SEQ. ID NO: 2) (Homo sapiens (Human), UniProt P15056); test: Biochemical Assay for B-Raf (1); conditions: Table J, assay version (1); read-out: BRAF (1) IC50
Chain of B-Raf kinase (SEQ. ID NO: 2) (P15056 416-766): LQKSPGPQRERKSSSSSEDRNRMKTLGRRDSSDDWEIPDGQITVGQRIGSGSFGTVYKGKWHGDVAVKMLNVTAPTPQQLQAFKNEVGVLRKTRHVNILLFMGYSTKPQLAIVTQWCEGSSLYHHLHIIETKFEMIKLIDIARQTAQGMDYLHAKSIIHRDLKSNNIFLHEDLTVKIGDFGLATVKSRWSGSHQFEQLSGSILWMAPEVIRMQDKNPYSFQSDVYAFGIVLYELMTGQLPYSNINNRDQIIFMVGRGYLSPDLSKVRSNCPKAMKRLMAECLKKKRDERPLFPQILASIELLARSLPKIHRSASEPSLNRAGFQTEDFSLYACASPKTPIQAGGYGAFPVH
How it was run: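 IC50 derived by four-parameter sigmoidal fit of percent inhibition, normalised to uninhibited and reference-inhibitor controls, using reaction rates over 4–5 h. Coupled spectrophotometric readout (NADH loss at 340 nm, 6 h, 30° C.); 1 mM ATP, 30.1 nM MEK, 0.13 nM B-Raf, pH 7.5 Tris buffer, 1% DMSO.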

[3] = target: C-Raf kinase (SEQ. ID NO: 3) (Homo sapiens (Human), UniProt P04049, Y340D/Y341D); test: Biochemical Assay for C-Raf (1); conditions: Table J, assay version (1); read-out: CRAF (1) IC50
Chain of C-Raf kinase (SEQ. ID NO: 3) (P04049 307-648 Y340D/Y341D): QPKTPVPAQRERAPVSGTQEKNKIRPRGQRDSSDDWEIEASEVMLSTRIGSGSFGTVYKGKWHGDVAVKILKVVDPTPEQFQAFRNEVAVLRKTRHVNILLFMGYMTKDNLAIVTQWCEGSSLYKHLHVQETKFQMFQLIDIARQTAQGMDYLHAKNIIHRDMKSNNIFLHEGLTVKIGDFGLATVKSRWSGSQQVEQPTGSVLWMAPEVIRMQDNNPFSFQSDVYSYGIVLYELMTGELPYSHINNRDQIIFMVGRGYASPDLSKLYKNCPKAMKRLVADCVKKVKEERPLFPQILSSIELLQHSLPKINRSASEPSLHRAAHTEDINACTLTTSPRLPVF
How it was run: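 IC50 values come from a four-parameter fit of percent inhibition, using the reaction rate over 4–5 h of a 6 h continuous 340 nm read at 30 °C. The enzyme mix was C-Raf 0.43 nM, MEK substrate 30.1 nM and ATP 1 mM, in a PK/LDH NADH-coupled format in Tris pH 7.5 with 1% DMSO.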

Miapaca-2 cells = test: MiaPaca-2 Cell Proliferation Assay (1); assay type: cell-based; conditions: Homo sapiens, MIA PaCa-2, single agent, read-out: MiaPaca2 (1) IC50
How it was run: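 Resazurin was added after compound exposure and incubated 5-6 h, then fluorescence read at 540 nm excitation and 600 nm emission to give IC50.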

Chain of A-Raf kinase (SEQ. ID No: 1) (P10398 other isoform, or with tags, fused parts or gaps Y301D (already in the parent)/Y302D (already in the parent)): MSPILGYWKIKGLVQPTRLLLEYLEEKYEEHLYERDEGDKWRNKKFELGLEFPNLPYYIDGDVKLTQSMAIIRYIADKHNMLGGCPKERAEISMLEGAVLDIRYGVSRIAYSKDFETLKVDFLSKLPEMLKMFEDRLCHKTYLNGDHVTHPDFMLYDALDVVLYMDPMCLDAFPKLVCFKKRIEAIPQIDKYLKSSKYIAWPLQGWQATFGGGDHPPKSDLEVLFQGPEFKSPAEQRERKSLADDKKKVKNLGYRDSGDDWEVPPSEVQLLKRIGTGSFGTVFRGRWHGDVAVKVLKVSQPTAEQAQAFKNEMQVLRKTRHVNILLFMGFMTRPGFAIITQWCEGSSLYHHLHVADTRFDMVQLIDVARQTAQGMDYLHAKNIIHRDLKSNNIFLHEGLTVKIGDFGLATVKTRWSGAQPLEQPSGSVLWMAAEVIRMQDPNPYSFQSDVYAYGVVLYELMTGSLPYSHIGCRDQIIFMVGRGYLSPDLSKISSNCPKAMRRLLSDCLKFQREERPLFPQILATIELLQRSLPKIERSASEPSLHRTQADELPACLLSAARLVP

IC50 [1] [nM]	IC50 [2] [nM]	IC50 [3] [nM]	IC50 (Miapaca-2 cells) [µM]	Structure (SMILES)
1000 to 10000	≤ 100	≤ 100	1 to 10	CNC(=O)c1cc(-c2nccc(-c3cc(NC(=O)c4ccnc(C5(C#N)CC5)c4)ccc3C)n2)ccn1 [Example 175]
1000 to 10000	100 to 500	≤ 100	1 to 10	CNC(=O)c1cc(-c2cc(-c3cc(NC(=O)c4ccnc(C(C)(C)C#N)c4)c(F)cc3C)ccn2)ccn1 [Example 176]
1000 to 10000	100 to 500	≤ 100	1 to 10	CNC(=O)c1cc(-c2ccnc(-c3cc(NC(=O)c4ccnc(C(C)(C)C#N)c4)ccc3C)n2)ccn1 [Example 177]
1000 to 10000	≤ 100	≤ 100	1 to 10	CNC(=O)c1cc(-c2cc(-c3cc(NC(=O)c4ccnc(C5(C#N)CC5)c4)ccc3C)ncn2)ccn1 [Example 178]
500 to 1000	≤ 100	≤ 100	1 to 10	Cc1cc(F)c(NC(=O)c2ccnc(C(C)(C)C#N)c2)cc1-c1ccnc(-c2ccnc(NC(=O)C3CC3)c2)n1 [Example 179]
100 to 500	≤ 100	≤ 100	1 to 10	Cc1ccc(NC(=O)c2ccnc(C3(C#N)CC3)c2)cc1-c1ccnc(-c2ccnc(NC(=O)C3CC3)c2)n1 [Example 180]
1000 to 10000	≤ 100	≤ 100	1 to 10	Cc1ncc(NC(=O)c2ccnc(C(C)(C)C#N)c2)cc1-c1cccc(-c2cc(NC(=O)C3CC3)ncn2)c1 [Example 181]
1000 to 10000	100 to 500	≤ 100	1 to 10	CCC(=O)Nc1cc(-c2cccc(-c3cc(NC(=O)c4ccnc(C(C)(C)C#N)c4)cnc3C)n2)ccn1 [Example 182]
100 to 500	≤ 100	≤ 100	1 to 10	Cc1ccc(NC(=O)c2ccnc(C3CC3)c2)cc1-c1cncc(-c2ccnc(NC(=O)C3CC3)c2)n1 [Example 184]
